Measurements from PubChem BioAssay AID248 (DTP/NCI, 2004).
Several values for one entry are separate records, joined by “and”; a condition that tells them apart may be missing. Identical values can stand only once. Inconclusive results and toxic doses are left out.

Test system: L1210 leukemia ip in BDF1 mice, survival T/C
Test: NCI In Vivo Anticancer Drug Screen. Data for tumor model L1210 Leukemia (intraperitoneal) in B6D2F1 (BDF1) mice
Details: endpoint: mean survival time, higher = longer survival
In short: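 Tumor cells were implanted, animals were treated, and survival was followed. The result divides the treated measurement by the vehicle-control measurement.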

O=NN(CCCl)C(=O)NC1CC2CCC1C2 (configuration not stated)
T/C (dose: 29.25 mg/kg/injection, schedule: Q## X001 (oral), vehicle: other): 196 % of control
T/C (dose: 30.0 mg/kg/injection, schedule: Q01DX001 (oral), vehicle: other): 229 % of control
T/C (dose: 32.0 mg/kg/injection, schedule: Q01DX009 (ip), vehicle: carboxymethylcellulose (CMC)): 196 % of control
T/C (dose: 32.0 mg/kg/injection, schedule: Q01DX009 (oral), vehicle: carboxymethylcellulose (CMC)): 187 % of control
T/C (dose: 32.4 mg/kg/injection, schedule: Q01DX001 (ip), vehicle: carboxymethylcellulose (CMC)): 109 % of control
T/C (dose: 35.0 mg/kg/injection, schedule: Q## X032 (ip), vehicle: other): 158 % of control
T/C (dose: 40.0 mg/kg/injection, schedule: Q01DX001 (ip), vehicle: carboxymethylcellulose (CMC)): 191 % of control
T/C (dose: 50.0 mg/kg/injection, schedule: Q01DX001 (ip), vehicle: saline): 242 % of control
T/C (dose: 50.0 mg/kg/injection, schedule: Q01DX009 (oral), vehicle: carboxymethylcellulose (CMC)): 200 % of control
T/C (dose: 50.0 mg/kg/injection, schedule: Q04DX005 (ip), vehicle: carboxymethylcellulose (CMC)): 230 % of control
T/C (dose: 50.0 mg/kg/injection, schedule: Q07DX Z (ip), vehicle: other): 223 % of control
T/C (dose: 50.0 mg/kg/injection, schedule: Q## X009 (ip), vehicle: carboxymethylcellulose (CMC)): 190 % of control
T/C (dose: 53.0 mg/kg/injection, schedule: Q## X032 (ip), vehicle: other): 121 % of control
T/C (dose: 54.0 mg/kg/injection, schedule: Q01DX001 (ip), vehicle: carboxymethylcellulose (CMC)): 115 % of control
T/C (dose: 64.0 mg/kg/injection, schedule: Q01DX005 (ip), vehicle: carboxymethylcellulose (CMC)): 119 % of control
T/C (dose: 64.0 mg/kg/injection, schedule: Q01DX009 (ip), vehicle: carboxymethylcellulose (CMC)): 123 % of control
T/C (dose: 64.0 mg/kg/injection, schedule: Q01DX009 (oral), vehicle: carboxymethylcellulose (CMC)): 106 % of control
T/C (dose: 64.0 mg/kg/injection, schedule: Q04DX003 (ip), vehicle: carboxymethylcellulose (CMC)): 118 % of control
T/C (dose: 66.0 mg/kg/injection, schedule: Q## X004 (ip), vehicle: other): 191 % of control
T/C (dose: 88.0 mg/kg/injection, schedule: Q01DX001 (oral), vehicle: other): 167 % of control
T/C (dose: 90.0 mg/kg/injection, schedule: Q01DX001 (ip), vehicle: carboxymethylcellulose (CMC)): 242 % of control
T/C (dose: 100.0 mg/kg/injection, schedule: Q01DX001 (ip), vehicle: carboxymethylcellulose (CMC)): 227 % of control
T/C (dose: 100.0 mg/kg/injection, schedule: Q01DX001 (ip), vehicle: other): 225 % of control
T/C (dose: 100.0 mg/kg/injection, schedule: Q01DX001 (oral), vehicle: carboxymethylcellulose (CMC)): 245 % of control
T/C (dose: 100.0 mg/kg/injection, schedule: Q01DX001 (oral), vehicle: other): 190 % of control
T/C (dose: 100.0 mg/kg/injection, schedule: Q01DX001 (sc), vehicle: other): 221 % of control
T/C (dose: 100.0 mg/kg/injection, schedule: Q01DX005 (ip), vehicle: carboxymethylcellulose (CMC)): 108 % of control
T/C (dose: 100.0 mg/kg/injection, schedule: Q01DX017 (ip), vehicle: carboxymethylcellulose (CMC)): 118 % of control
T/C (dose: 100.0 mg/kg/injection, schedule: Q04DX003 (oral), vehicle: carboxymethylcellulose (CMC)): 194 % of control
T/C (dose: 100.0 mg/kg/injection, schedule: Q## X006 (oral), vehicle: carboxymethylcellulose (CMC)): 161 % of control
T/C (dose: 100.0 mg/kg/injection, schedule: Q## X009 (ip), vehicle: carboxymethylcellulose (CMC)): 111 % of control
T/C (dose: 117.0 mg/kg/injection, schedule: Q01DX001 (oral), vehicle: other): 105 % of control
T/C (dose: 117.0 mg/kg/injection, schedule: Q## X001 (oral), vehicle: other): 122 % of control
T/C (dose: 128.0 mg/kg/injection, schedule: Q01DX001 (ip), vehicle: carboxymethylcellulose (CMC)): 104 % of control
T/C (dose: 128.0 mg/kg/injection, schedule: Q01DX001 (oral), vehicle: carboxymethylcellulose (CMC)): 245 % of control
T/C (dose: 128.0 mg/kg/injection, schedule: Q01DX005 (ip), vehicle: carboxymethylcellulose (CMC)): 93 % of control
T/C (dose: 187.0 mg/kg/injection, schedule: Q01DX001 (ip), vehicle: carboxymethylcellulose (CMC)): 224 % of control
T/C (dose: 200.0 mg/kg/injection, schedule: Q01DX001 (ip), vehicle: carboxymethylcellulose (CMC)): 94 % of control and 111 % of control
T/C (dose: 200.0 mg/kg/injection, schedule: Q01DX001 (ip), vehicle: other): 118 % of control
T/C (dose: 200.0 mg/kg/injection, schedule: Q01DX001 (iv), vehicle: other): 183 % of control
T/C (dose: 200.0 mg/kg/injection, schedule: Q01DX001 (oral), vehicle: carboxymethylcellulose (CMC)): 122 % of control
T/C (dose: 200.0 mg/kg/injection, schedule: Q04DX005 (ip), vehicle: carboxymethylcellulose (CMC)): 96 % of control
T/C (dose: 256.0 mg/kg/injection, schedule: Q01DX001 (sc), vehicle: carboxymethylcellulose (CMC)): 109 % of control
T/C (dose: 400.0 mg/kg/injection, schedule: Q01DX001 (ip), vehicle: other): 107 % of control
T/C (dose: 125.0 micrograms/kg/injection, schedule: Q03HX024 (ip), vehicle: carboxymethylcellulose (CMC)): 114 % of control
T/C (dose: 250.0 micrograms/kg/injection, schedule: Q03HX024 (ip), vehicle: carboxymethylcellulose (CMC)): 165 % of control
T/C (dose: 2000.0 micrograms/kg/injection, schedule: Q03HX008 (ip), vehicle: carboxymethylcellulose (CMC)): 253 % of control
